Assay results reported in US8574563B2 (Bristol-Myers Squibb Company, priority 2006, dated 2013).

The compounds below were run on HCV 1b-377-neo replicon cells (assay: HCV replicon assay, HCV 1b-377-neo replicon cells (1b FRET)). Settings: HCV 1b-377-neo replicon cells; HCV 1b genotype; read-out: EC50 range against HCV 1b (Table 2, Range).
Type: cell-based, Hepatitis C virus genotype 1b
Outline: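 Compounds tested in HCV genotype 1b-377-neo replicon cells with a FRET read-out. Cells resistant to a reference NS5A inhibitor through a Y2065H NS5A mutation were run alongside wild-type cells.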

Compound | EC50 [nM]
O=C(Cc1ccccc1)N1CCC[C@H]1c1ncc(-c2ccc(-c3ccc(-c4cnc([C@@H]5CCCN5C(=O)Cc5ccccc5)[nH]4)cc3)cc2)[nH]1 [Example 7, 5,5′-(4,4′-biphenyldiyl)bis(2-((2)S-1-(phenylacetyl)-2-pyrrolidinyl)-1H-imidazole)] | 0.001 to 0.999

Same assay, conditions: Hepatitis C virus, HCV 1b-377-neo replicon cells; HCV 1b genotype; read-out: EC50 range against HCV 1b (Table 2, Range)

Compound | EC50 [nM]
O=C([C@H](O)c1ccccc1)N1C[C@H](O)C[C@H]1c1ncc(-c2ccc(-c3ccc(-c4cnc([C@@H]5C[C@@H](O)CN5C(=O)[C@H](O)c5ccccc5)[nH]4)cc3)cc2)[nH]1 [Example 24-12, (3R,5S,3′R,5′S)-5,5′-(4,4′-biphenyldiylbis(1H-imidazole-5,2-diyl))bis(1-((2R)-2-hydroxy-2-phenylacetyl)-3-pyrrolidinol)] | 1 to 99
CCN(C)[C@@H](C(=O)N1CCC[C@H]1c1ncc(-c2ccc(-c3ccc(-c4cnc([C@@H]5CCCN5C(=O)[C@@H](c5ccccc5)N(C)CC)[nH]4)cc3)cc2)[nH]1)c1ccccc1 [Example 22, (1R,1′R)-2,2′-(4,4′-biphenyldiylbis(1H-imidazole-5,2-diyl(2S)-2,1-pyrrolidinediyl))bis(N-ethyl-N-methyl-2-oxo-1-phenylethanamine)] | 0.001 to 0.999
CCC(CC)[C@H](NC(=O)OC)C(=O)N1CCC[C@H]1c1ncc(-c2ccc(-c3ccc(-c4cnc([C@@H]5CCCN5C(=O)[C@@H](NC(=O)OC)C(CC)CC)[nH]4)cc3)cc2)[nH]1 [OL-4, methyl ((1S)-2-ethyl-1-(((2S)-2-(4-(4′-(2-((2S)-1-((2S)-3-ethyl-2-((methoxycarbonyl)amino)pentanoyl)-2-pyrrolidinyl)-1H-imidazol-4-yl)-4-biphenylyl)-1H-imidazol-2-yl)-1-pyrrolidinyl)carbonyl)butyl)carbamate] | 0.001 to 0.999
COC(=O)N[C@@H](CC(=O)N1CCC[C@H]1c1ncc(-c2ccc(-c3ccc(-c4cnc([C@@H]5CCCN5C(=O)C[C@@H](Cc5ccsc5)NC(=O)OC)[nH]4)cc3)cc2)[nH]1)Cc1ccsc1 [cj-137, dimethyl (4,4′-biphenyldiylbis(1H-imidazole-5,2-diyl(2S)-2,1-pyrrolidinediyl((2R)-4-oxo-1-(3-thienyl)-4,2-butanediyl)))biscarbamate] | 1 to 99
COC(=O)N[C@@H](C(=O)N1CCC[C@H]1c1ncc(-c2ccc(-c3ccc(-c4cnc([C@@H]5CCCN5C(=O)[C@@H](c5ccccc5)N(C)C)[nH]4)cc3)cc2)[nH]1)c1ccccc1 [Example 42, methyl ((1R)-2-((2S)-2-(5-(4′-(2-((2S)-1-((2R)-2-(dimethylamino)-2-phenylacetyl)-2-pyrrolidinyl)-1H-imidazol-5-yl)-4-biphenylyl)-1H-imidazol-2-yl)-1-pyrrolidinyl)-2-oxo-1-phenylethyl)carbamate] | 0.001 to 0.999
COC(=O)N[C@H](C(=O)N1CCC[C@H]1c1nc(-c2ccc(-c3ccc(-c4c[nH]c([C@@H]5CCCN5C(=O)CNC5CCOCC5)n4)cc3)cc2)c[nH]1)C(C)C [Example F51, methyl ((1S)-2-methyl-1-(((2S)-2-(4-(4′-(2-((2S)-1-(N-(tetrahydro-2H-pyran-4-yl)glycyl)-2-pyrrolidinyl)-1H-imidazol-4-yl)-4-biphenylyl)-1H-imidazol-2-yl)-1-pyrrolidinyl)carbonyl)propyl)carbamate] | 0.001 to 0.999
COC(=O)N[C@H](C(=O)N1CC(F)(F)C[C@H]1c1nc(-c2ccc(-c3ccc(-c4cnc([C@@H]5CCCN5C(=O)[C@@H](NC(=O)OC)C(C)C)[nH]4)c(F)c3)cc2)c[nH]1)C(C)C [Example J14e, methyl ((1S)-1-(((2S)-4,4-difluoro-2-(4-(3′-fluoro-4′-(2-((2S)-1-((2S)-2-((methoxycarbonyl)amino)-3-methylbutanoyl)-2-pyrrolidinyl)-1H-imidazol-4-yl)-4-biphenylyl)-1H-imidazol-2-yl)-1-pyrrolidinyl)carbonyl)-2-methylpropyl)carbamate] | 0.001 to 0.999
COC(=O)N[C@@H](C(=O)N(C)[C@@H](C)c1ncc(-c2ccc(-c3ccc(-c4cnc([C@@H]5CCCN5C(=O)[C@H](NC(=O)OC)c5ccccc5)[nH]4)cc3)cc2)[nH]1)c1ccccc1 [Example 24-18-4, methyl ((1R)-2-((2S)-2-(5-(4′-(2-((1S)-1-(((2R)-2-((methoxycarbonyl)amino)-2-phenylacetyl)(methyl)amino)ethyl)-1H-imidazol-5-yl)-4-biphenylyl)-1H-imidazol-2-yl)-1-pyrrolidinyl)-2-oxo-1-phenylethyl)carbamate] | 0.001 to 0.999
CC[C@H](C(=O)N1CCC[C@H]1c1ncc(-c2ccc(-c3ccc(-c4cnc([C@@H]5CCCN5C(=O)[C@@H](NC(=O)OC)C(C)C)[nH]4)cc3)cc2)[nH]1)N(CC)CC [Example M85, methyl ((1S)-1-(((2S)-2-(5-(4′-(2-((2S)-1-((2R)-2-(diethylamino)butanoyl)-2-pyrrolidinyl)-1H-imidazol-5-yl)-4-biphenylyl)-1H-imidazol-2-yl)-1-pyrrolidinyl)carbonyl)-2-methylpropyl)carbamate] | 1 to 99
COC(=O)N[C@@H](C(=O)N1CCC[C@H]1c1ncc(-c2ccc(-c3ccc(-c4cnc([C@@H]5CCCN5C(=O)Cc5ccccc5)[nH]4)cc3)cc2)[nH]1)c1ccccc1 [Example 28, methyl ((1R)-2-oxo-1-phenyl-2-((2S)-2-(5-(4′-(2-((2S)-1-(phenylacetyl)-2-pyrrolidinyl)-1H-imidazol-5-yl)-4-biphenylyl)-1H-imidazol-2-yl)-1-pyrrolidinyl)ethyl)carbamate] | 1 to 99
O=C(CC1CC1)N1CCC[C@H]1c1ncc(-c2ccc(-c3ccc(-c4cnc([C@@H]5CCCN5C(=O)CC5CC5)[nH]4)cc3)cc2)[nH]1 [Example 12, 5,5′-(4,4′-biphenyldiyl)bis(2-((2S)-1-(cyclopropylacetyl)-2-pyrrolidinyl)-1H-imidazole)] | 1 to 99
CCN(CC)[C@@H](C(=O)N1CCC[C@H]1c1nc(-c2ccc(-c3ccc(-c4cnc([C@@H]5CCCN5C(=O)[C@@](C)(NC(=O)OC)C(C)C)[nH]4)cc3)cc2)c[nH]1)c1ccccc1 [Example F43, methyl ((1S)-1-(((2S)-2-(5-(4′-(2-((2S)-1-((2R)-2-(diethylamino)-2-phenylacetyl)-2-pyrrolidinyl)-1H-imidazol-4-yl)-4-biphenylyl)-1H-imidazol-2-yl)-1-pyrrolidinyl)carbonyl)-1,2-dimethylpropyl)carbamate] | 0.001 to 0.999
CN(C)[C@@H](C(=O)N1CSC[C@H]1c1ncc(-c2ccc(-c3ccc(-c4cnc([C@@H]5CSCN5C(=O)[C@@H](c5ccccc5)N(C)C)[nH]4)cc3)cc2)[nH]1)c1ccccc1 [Example 148, (1R,1′R)-2,2′-(4,4′-biphenyldiylbis(1H-imidazole-5,2-diyl(4R)-1,3-thiazolidine-4,3-diyl))bis(N,N-dimethyl-2-oxo-1-phenylethanamine)] | 1 to 99
CNC(=O)N[C@H](C(=O)N1CCC[C@H]1c1nc(-c2ccc(-c3ccc(-c4c[nH]c([C@@H]5CCCN5C(=O)[C@@H](NC(=O)NC)C(C)C)n4)cc3)cc2)c[nH]1)C(C)C [Example F63, 1-methyl-3-((1S)-2-methyl-1-(((2S)-2-(4-(4′-(2-((2S)-1-(N-(methylcarbamoyl)-L-valyl)-2-pyrrolidinyl)-1H-imidazol-4-yl)-4-biphenylyl)-1H-imidazol-2-yl)-1-pyrrolidinyl)carbonyl)propyl)urea] | 0.001 to 0.999
CC[C@H](NC(=O)OC)C(=O)N1CCC[C@H]1c1ncc(-c2ccc(-c3ccc(-c4cnc([C@@H]5CCCN5C(=O)[C@@H](c5ccccc5)N(CC)CC)[nH]4)cc3)cc2)[nH]1 [Example M55, methyl ((1S)-1-(((2S)-2-(5-(4′-(2-((2S)-1-((2R)-2-(diethylamino)-2-phenylacetyl)-2-pyrrolidinyl)-1H-imidazol-5-yl)-4-biphenylyl)-1H-imidazol-2-yl)-1-pyrrolidinyl)carbonyl)propyl)carbamate] | 1 to 99
CN(C)[C@@H](C(=O)N1CCC[C@H]1c1ncc(-c2ccc(-c3ccc(-c4cnc([C@@H]5CCCN5C(=O)Cc5ccsc5)[nH]4)cc3)cc2)[nH]1)c1ccccc1 [Example 94-48, (1R)-N,N-dimethyl-2-oxo-1-phenyl-2-((2S)-2-(5-(4′-(2-((2S)-1-(3-thienylacetyl)-2-pyrrolidinyl)-1H-imidazol-5-yl)-4-biphenylyl)-1H-imidazol-2-yl)-1-pyrrolidinyl)ethanamine] | 0.001 to 0.999
COC(=O)N[C@@H](C(=O)N1CCC[C@H]1c1ncc(-c2ccc(-c3ccc(-c4cnc([C@@H]5CCCN5C(=O)CN(C)C)[nH]4)cc3)cc2)[nH]1)c1ccccc1 [Example 37, methyl ((1R)-2-((2S)-2-(5-(4′-(2-((2S)-1-(N,N-dimethylglycyl)-2-pyrrolidinyl)-1H-imidazol-5-yl)-4-biphenylyl)-1H-imidazol-2-yl)-1-pyrrolidinyl)-2-oxo-1-phenylethyl)carbamate] | 0.001 to 0.999
COC(=O)N[C@@H](Cc1cscn1)C(=O)N1CCC[C@H]1c1ncc(-c2ccc(-c3ccc(-c4cnc([C@@H]5CCCN5C(=O)[C@H](Cc5cscn5)NC(=O)OC)[nH]4)cc3)cc2)[nH]1 [cj-153, methyl ((1S)-2-((2S)-2-(5-(4′-(2-((2S)-1-((2S)-2-((methoxycarbonyl)amino)-3-(1,3-thiazol-4-yl)propanoyl)-2-pyrrolidinyl)-1H-imidazol-5-yl)-4-biphenylyl)-1H-imidazol-2-yl)-1-pyrrolidinyl)-2-oxo-1-(1,3-thiazol-4-ylmethyl)ethyl)carbamate] | 0.001 to 0.999
CN[C@@H](CC(C)C)C(=O)N1CCC[C@H]1c1nc(-c2ccc(-c3ccc(-c4cnc([C@@H]5CCCN5C(=O)[C@H](CC(C)C)NC)[nH]4)cc3)cc2)c[nH]1 [Example F32, (2S)-N,4-dimethyl-1-((2S)-2-(4-(4′-(2-((2S)-1-((2S)-4-methyl-2-(methylamino)pentanoyl)-2-pyrrolidinyl)-1H-imidazol-5-yl)-4-biphenylyl)-1H-imidazol-2-yl)-1-pyrrolidinyl)-1-oxo-2-pentanamine] | 100 to 999
